These results are taken from ChEMBL document CHEMBL3414534, “Water-soluble isoindolo[2,1-a]quinoxalin-6-imines: in vitro antiproliferative activity and molecular mechanism(s) of action” (Eur J Med Chem, 2015).

The solubility is the dissolved amount per volume that the medium holds. Lower therefore signals little dissolved substance. Broadly, the GI50 is the concentration that inhibits growth by half. What is called IC50 is the concentration needed to halve the response being measured.

The nature of data set [1]: Solubility in water at 25 degC sonicated for 10 mins by HPLC method. The data set is classed as physicochemical.
Data set [2] deals with U2OS. Nature of the data set: Induction of telomere architecture perturbations in human U2OS cells assessed as displacement of TRF2 from telomeres at cytotoxic IC50 level after 24 hrs by chromatin immunoprecipitation method. The data set is classed as functional.
In data set [3] the test system is U2OS. Nature of the data set: Induction of telomere architecture perturbations in human U2OS cells assessed as displacement of human DNA topoisomerase 1 from telomeres at cytotoxic IC50 level after 24 hrs by chromatin immunoprecipitation method. The data set is classed as functional.
In data set [4] the test system is U2OS. As to the kind of experiment: Induction of telomere architecture perturbations in human U2OS cells assessed as increase in DNA topoisomerase 1 binding to telomeric sequences at cytotoxic IC50 level after 6 hrs by chromatin immunoprecipitation method. The data set is classed as functional.
The test system of data set [5] is U2OS. Nature of the data set: Induction of telomere architecture perturbations in human U2OS cells assessed as increase in DNA topoisomerase 1 binding to telomeric sequences at cytotoxic IC50 level after 12 hrs by chromatin immunoprecipitation method. The data set is classed as functional.
The subject of data set [6] is U2OS. As to the kind of experiment: Induction of telomere architecture perturbations in human U2OS cells assessed as displacement of hPOT1 from telomeres at cytotoxic IC50 level after 12 hrs by chromatin immunoprecipitation method. The data set is classed as functional.
Data set [7] can be described thus: Growth inhibition of human NCI60 cells. The data set is classed as functional. The conditions noted are these: Homo sapiens, NCI60.
Data set [8] deals with U2OS. As to the kind of experiment: Induction of apoptosis in human U2OS cells assessed as increase in caspase-3 catalytic activity at cytotoxic IC50 level after 72 hrs. The data set is classed as functional.
Data set [9] is described as follows: Inhibition of purified recombinant glutathione-S-transferase tagged cdc25 phosphatase (unknown origin) assessed as reduction in p-nitrophenylphosphate phosphatase activity by colorimetry. Details: species or system Homo sapiens.
The target in data set [10] is Cyclin-dependent kinase 1 (Homo sapiens, UniProt P06493). As to the kind of experiment: Inhibition of CDC2 kinase (unknown origin) using histone H1 and [32P]-ATP.
Chain of Cyclin-dependent kinase 1 (P06493 whole entry): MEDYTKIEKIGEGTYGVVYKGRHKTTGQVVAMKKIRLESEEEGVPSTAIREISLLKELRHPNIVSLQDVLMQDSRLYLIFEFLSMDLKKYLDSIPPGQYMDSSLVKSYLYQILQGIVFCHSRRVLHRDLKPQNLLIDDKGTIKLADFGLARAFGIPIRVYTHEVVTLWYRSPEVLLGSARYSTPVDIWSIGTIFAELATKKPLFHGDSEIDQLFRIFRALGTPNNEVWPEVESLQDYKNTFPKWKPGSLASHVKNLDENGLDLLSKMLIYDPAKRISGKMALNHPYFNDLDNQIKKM

Values after ≈ are worked out from the molar mass of the structure shown.

`COc1cc2cn3c4ccc(O)cc4[nH]c(=N)c3c2cc1OC`: the concentration in solution in [1] (solubility at 10 min) was 24.5 mM (≈ 7580 µg/mL). Moreover, the Activity in data set [2] is given as -80%; in data set [4] it was 64%; in data set [5] it was 309%; in [6], -88%. In addition, the “inhibition (INH)” value in data set [3] amounted to 57%. In addition, the GI50 in data set [7] was less than 3.24 µM. Further, in data set [8], the “fold change (FC)” value is given as 23.

`O=C(Cn1c2ccc(Br)cc2c2nc3ccccc3nc21)NNC(=S)NC1CCCCC1`: the IC50 in data set [9] worked out at 25 µM; in data set [10], 70 µM.
